Marks after values point to notes of the source that are not given here.
Assay: Particle size measurement (dynamic light scattering) and visual solubility in aqueous solutions; for particle size, HIST/NaCl: unit not given here; for particle size, HIST: unit not given here; for particle size, NaCl: unit not given here; for particle size, PBS: unit not given here; for particle size, Water: unit not given here
Settings: for particle size, HIST: 2 mg net mass/ml in 28 mM L-Histidine buffer, pH 5.9 to 6.4; for particle size, HIST/NaCl: 2 mg net mass/ml in 0.9% sodium chloride in 28 mM L-histidine, pH 5.9 to 6.3; for particle size, NaCl: 2 mg net mass/ml in 0.9% sodium chloride, pH 3.3 to 4.2; for particle size, PBS: 2 mg net mass/ml in 1× PBS, pH 6.9 to 7.5; for particle size, Water: 2 mg net mass/ml in water, pH 3.1 to 4.1, 20 °C; for behaviour in the particle size assay: water, HIST, NaCl versus HIST/NaCl, PBS

Substance	particle size, HIST	particle size, HIST/NaCl	particle size, NaCl	particle size, PBS	particle size, Water	behaviour in the particle size assay
Ac-LRLLAAHLALHAALLRLL-NH2 [Peptide 10, Ac-LRLLAAHLALHAALLRLL-NH2]	INS.	INS.	INS.	INS.	INS.	–
Ac-LRLLHAALALAAHLLRLL-NH2 [Peptide 8, Ac-LRLLHAALALAAHLLRLL-NH2]	INS.	INS.	INS.	INS.	INS.	–
Ac-LRLLHALLALLAHLLRLL-NH2 [Peptide 6, Ac-LRLLHALLALLAHLLRLL-NH2]	INS.	INS.	INS.	INS.	INS.	–
Ac-LRLLHAPLALPAHLLRLL-NH2 [Peptide 7, Ac-LRLLHAPLALPAHLLRLL-NH2]	0*	INS.	0*	INS.	0*	–
Ac-LRLLPAHLALHAPLLRLL-NH2 [Peptide 9, Ac-LRLLPAHLALHAPLLRLL-NH2]	0*	INS.	6.02*	INS.	0*	–
Ac-RRLKKAKLKLKAKKLRRL-NH2 [Peptide 19, Ac-RRLKKAKLKLKAKKLRRL-NH2]	0*	0*	0*	0*	0*	–
Ac-RRLLAAHLALHAALLRRL-NH2 [Peptide 15, Ac-RRLLAAHLALHAALLRRL-NH2]	0*	2.66*	0*	360.7*	0*	–
Ac-RRLLAAPLALPAALLRRL-NH2 [Peptide 5, Ac-RRLLAAPLALPAALLRRL-NH2]	0*	3.3*	1.6*	1.35*	0*	–
Ac-RRLLHAALALAAHLLRRL-NH2 [Peptide 13, Ac-RRLLHAALALAAHLLRRL-NH2]	0*	2.7*	2.2*	2.3*	0*	–
Ac-RRLLHAHLALHAHLLRRL-NH2 [Peptide 16, Ac-RRLLHAHLALHAHLLRRL-NH2]	0*	1.83*	0*	1.4*	0*	apparent solubility in water, 28 mM L-Histidine and 0.9% NaCl with the formation of larger particles or insoluble aggregates in 28 mM L-Histidine/NaCl or PBS
Ac-RRLLHAKLALKAHLLRRL-NH2 [Peptide 17, Ac-RRLLHAKLALKAHLLRRL-NH2]	0*	0*	0*	0*	0*	–
Ac-RRLLHALLALLAHLLRRL-NH2 [Peptide 11, Ac-RRLLHALLALLAHLLRRL-NH2]	0*	INS.	0*	INS.	0*	–
Ac-RRLLHAPLALPAHLLRRL-NH2 [Peptide 12, Ac-RRLLHAPLALPAHLLRRL-NH2]	0*	0*	0*	1.35*	0*	–
Ac-RRLLKAKLALKAKLLRRL-NH2 [Peptide 18, Ac-RRLLKAKLALKAKLLRRL-NH2]	0*	0*	0*	0*	0*	–
Ac-RRLLLAPLALPALLLRRL-NH2 [Peptide 4, Ac-RRLLLAPLALPALLLRRL-NH2]	0*	0*	0*	2.38*	0*	–
Ac-RRLLPAALALAAPLLRRL-NH2 [Peptide 2, Ac-RRLLPAALALAAPLLRRL-NH2]	0*	0*	0*	4.52*	0*	–
Ac-RRLLPAHLALHAPLLRRL-NH2 [Peptide 14, Ac-RRLLPAHLALHAPLLRRL-NH2]	0*	0*	0*	1.5*	0*	–
Ac-RRLLPALLALLAPLLRRL-NH2 [Peptide 3, Ac-RRLLPALLALLAPLLRRL-NH2]	0*	0*	0*	3.37*	0*	–
Ac-RRLLPAPLALPAPLLRRL-NH2 [Peptide 1, Ac-RRLLPAPLALPAPLLRRL-NH2]	0*	0.87*	0*	2.39*	0*	–
H-K(Ac)RRLLHAHLALHAHLLRRLK(Ac)-NH2 [Peptide 16′, K(Ac)RRLLHAHLALHAHLLRRLK(Ac)-NH2]	0*	2.3*	0*	2.9*	0*	apparent solubility in water, 28 mM L-Histidine and 0.9% NaCl with the formation of larger particles or insoluble aggregates in 28 mM L-Histidine/NaCl or PBS

— patent US9962453B2, “Immunogenic compound” (ALTIMMUNE UK LIMITED, priority 2013, dated 2018)
